Series [1] concerns adult fruit fly (D. melanogaster). Briefly: Method A: topical treatment of adult fruit fly. The following applies: for LD50: Method A, topical 0.2 μL acetone solution, adult fruit flies, 24 hour mortalities, probit regression; for activity against adult fruit flies (in words): topical treatment, from LD50 values. It is filed as in vivo, Drosophila melanogaster. As to the method:
Topical Treatment of Adult Fruit Fly (D. melanogaster)
A culture of fruit flies (D. melanogaster) was used in the production of adult flies (approx 0.22 mg) of about seven days.
Serial dilutions of the compounds were prepared in acetone, and volumes of approximately 0.2 μL were applied to the ventral surface of each insect, using a calibrated PAX 100 microapplicator and a 1 mL syringe.
The fruit flies, in groups of 5, were anaesthetised using carbon dioxide. Prior to recovery the flies were placed in a containing vial and kept at 30±1° C., for observations of mortality at 1, 2, 3 and 24 hours after treatment.
For this purpose solutions of 6 different concentrations and a control were employed in groups of 12 and 20 insects. Control mortalities were normally zero but occasionally rose to 5-10%.
(§1) Dosages used in insect treatments were based upon the amount of compound applied to each insect. For the shrimps the final concentrations of the compounds in the immersion brine were used.
(§2) The 24 hour mortalities were used to calculate the LD50/LC50 using regression analysis of the probability percent mortality (probit) against log dose/concentration.^30 This was calculated using PoloPC software (LeOra Software, Berkeley, Calif., 1994).
In the table are also given the confidence intervals at 95% for the LD50 values, the number of organisms tested, the slope obtained by linear regression and the index g (of significance). Data are considered satisfactory if g is substantially less than 1 and seldom greater than 0.4.^31
As regards the confidence intervals for LD50, the indication (90%) means that the intervals were calculated at 90% and not at 95%.

For series [2], the system named is brine shrimp A. salina larvae. The series is described as follows: Method F: immersion bioassay of brine shrimp larvae in brine. It is filed as in vivo. The following applies: brine shrimp larvae immersed in brine, 24 hour mortalities. As to the method: (§3) Immersion Bioassay of Brine Shrimp A. salina Larvae in Brine
(§4) Freshly hatched brine shrimps were prepared by adding aquarium brine shrimp eggs to salt water (15 g sea salt per litre water). The following day hatchlings were separated from eggs and empty egg cases, using their phototropic movement and a Pasteur pipette.
(§5) Into each of a set of small glass vials was pipetted 195 μL of brine containing 5 shrimp larvae, using a micropipette. The solution of the test compound in 5 μL acetone was added, the vial closed and kept at 30±1° C. for observation.
(§6) Dead and alive shrimps were counted, at 1 and 24 hours after treatment, using a microscope. Six concentrations and a control were used with 10 shrimps treated.
(§7) A blank test was performed for comparison of the results.
as §1, §2

The subject of the next series is adult fruit flies. The series is described as follows: Method B: second method for topical treatment of adult fruit flies. It is filed as in vivo, Drosophila melanogaster. The following applies: topical 1 μL acetone solution, 24 hour mortalities. As to the method:
Second Method for Topical Treatment of Adult Fruit Flies
Different dilutions of the compounds in acetone were prepared and applied to individual fruit flies using a Gilson piston micropipette.
Individual flies were held in padded forceps and 1 μL of acetone solution was applied. The acetone was allowed to evaporate before placing the fly into the vial for observation, kept at 30±1° C., following the standard methodology.
as §1, §2

For series [3], the system named is glasshouse white fly (T. vaporariorum). Briefly: Method G: foliar treatment of glasshouse white fly on tomato leaves. It is filed as in vivo, Trialeurodes vaporariorum. The following applies: for % Control of White Fly: sprayed on infested tomato leaves, 14 hours; for insecticidal efficacy against adult white fly (in words): spraying infested tomato leaves. How it is done: Method G Foliar Treatment of Glasshouse White Fly (T. vaporariorum) Seedlings of tomato plants were infested with adult white fly. Selected leaves of the tomato plants were excised and carefully trimmed to 3 leaflets without disturbing the infestation. These were placed in glass tubes containing water and the leaflets were then sprayed on both sides with a small sprayer delivering for each one 200 μL of a solution of the test compound dissolved in 30% acetone in water. Controls were sprayed with the solvent alone. Counts of insects on the individual leaflets were made immediately after spraying and then at 14 hours following. Where single dose treatments were used (in the case of whitefly assays), no statistics are available and the results are expressed as percent effect. Five compounds were tested, which were applied spraying 600 μL of each compound solution (prepared according to method G) on of leaves of tomato plants infested with a known number of adult whitefly. After 14 hours, the number of dead insects (or eventually of insects that disappeared) was counted. These assays were performed at room temperature, between 20 and 25° C.

Another series relates to fruit fly larvae. The series is described as follows: Method D: topical treatment of fruit fly larvae. It is filed as in vivo, Drosophila melanogaster. The following applies: for LD50: Method D, topical 0.2 μL acetone solution, second and third instar fruit fly larvae; for toxicity to fruit fly larvae compared with adult flies (in words): topical treatment of larvae, from LD50 values. How it is done: Topical Treatment of Fruit Fly Larvae
Fruit fly larvae were separated from the growing medium and second and third instars were topically treated with 0.2 μL acetone solutions of the compounds using a PAX microapplicator.
Larvae were held in padded forceps for dosing and then placed on moistened filter paper, at 30±1° C., for observation.
as §1, §2

Series [4] concerns house fly adults (M. domestica). The series is described as follows: Method E: topical treatment of house fly adults. It is filed as in vivo, Musca domestica. The following applies: topical 1 μL acetone solution, adult house flies, strain Cooper. As to the method: Topical Treatment of House Fly Adults (M. domestica)
A culture of an insecticide-susceptible strain, Cooper, was established. Three-day-old adult house flies (body weight about […]) were anaesthetised with carbon dioxide. Using the PAX microapplicator, a volume of 1 μL of acetone solution of the test compounds was applied to the dorsal cuticle, holding the fly in padded forceps.
Groups of flies were placed into closed vials, kept at 30±1° C., for observation.
as §1, §2

The nature of series [5]: Method F: immersion bioassay of brine shrimp larvae in brine. It is filed as in vivo. The following applies: Artemia salina (brine shrimp) larvae, in vivo, brine shrimp larvae immersed in brine, 24 hour mortalities. How it is done: as §3, §4, §5, §6, §7, §1, §2

In brackets after ≈: the same amount, converted by molar mass. Entries after “also recorded” stand apart in the source; their conditions may differ.

On to `CC1=C[C@H]([C@H]2O[C@@H]3OC(C)(C)O[C@@H]3[C@H]2OCc2ccccc2)OC1=O` [Compound 1, 3-O-benzyl-6,7-dideoxy-1,2-O-isopropylidene-7-methyl-α-D-gluco-oct-6-enefuranurono-8,5-lactone], for which, in series [1], the LD50 turned out to be 0.00002 μg/insect and the “activity against adult fruit flies (in words)” value (shortened to “activity”) is given as “extremely active”. Also, the LC50 in series [2] was 100.62 µg/mL (≈ 290 µM).

As for `CC1=C[C@H]([C@H]2O[C@@H]3OC(C)(C)O[C@@H]3[C@@H]2OCc2ccccc2)OC1=O` [Compound 2, 3-O-benzyl-6,7-dideoxy-1,2-O-isopropylidene-7-methyl-α-D-alo-oct-6-enefuranurono-8,5-lactone], the LD50 in series [1] was 2.27 × 10^−6 μg/insect; with adult fruit flies, 0.00398 μg/insect. In series [1], the “activity” value is “extremely active”. The molecule also returned an LC50 in series [2] of 64.30 µg/mL (≈ 186 µM).

Take `CC1(C)O[C@H]2O[C@H]([C@H]3C=CC(=O)O3)[C@@H](OCc3ccccc3)[C@H]2O1` [Compound 3, 3-O-benzyl-6,7-dideoxy-1,2-O-isopropylidene-α-D-alo-oct-6-enefuranurono-8,5-lactone]: in series [1], the LD50 was 5.02 × 10^−6 μg/insect and the “activity” value is recorded as “extremely active”. This molecule also came in with an LC50 in series [2] of 144.71 µg/mL (≈ 435 µM). Moreover, the “% Control of White Fly” value in series [3] (concentration 1.3 μg/mL) was 0%.

In the case of `CC1(C)O[C@H]2O[C@H]([C@H]3C=CC(=O)O3)[C@H](OCc3ccccc3)[C@H]2O1` [Compound 4, 3-O-benzyl-6,7-dideoxy-1,2-O-isopropylidene-α-D-gluco-oct-6-enefuranurono-8,5-lactone], in series [1], the LD50 amounted to 0.00012 μg/insect and the “activity” value is given as “high toxicity against adult fruit flies”. Also, in series [2], the LC50 was found to be 358.92 µg/mL (≈ 1080 µM). The “% Control of White Fly” value in series [3] (concentration 2.5 μg/mL) is on record as 50%. The “insecticidal efficacy against adult white fly (in words)” value in series [3] is on record as “show efficacy as insecticides; also recorded: promising for activity against the white fly”.

On to `CC(=O)OC[C@H]1OC(=O)C(Br)=C[C@@H]1OC(C)=O` [Compound 5, 4,6-di-O-acetyl-2-bromo-2,3-dideoxy-D-erythro-hex-2-enone-1,5-lactone], for which the LD50 in series [1] was found to be 0.00016 μg/insect; in the series with fruit fly larvae it was 4.75 μg/insect; in series [4], 1.065 μg/insect. The “toxicity to fruit fly larvae compared with adult flies (in words)” value in the series with fruit fly larvae is “less toxic for larvae than for adult flies”. The LC50 in series [2] amounted to 38.36 µg/mL (≈ 125 µM).

Consider `CC1(C)OC2OC(C3CC(C)([Se]c4ccccc4)C(=O)O3)C(OCc3ccccc3)C2O1` [Compound 8, (7R)-/(7S)-3-O-Benzyl-6,7-dideoxy-1,2-O-isopropylidene-7-methyl-7-phenylselenyl-α-D-gluco-octofuranurono-8,5-lactone], for which the LD50 in series [1] was 0.00037 μg/insect; in series [4], 0.644 μg/insect. In the series on fruit fly larvae, the “toxicity to fruit fly larvae compared with adult flies (in words)” value is recorded as “less toxic for larvae than for adult flies”. In series [2], the LC50 stood at 220.41 µg/mL (≈ 438 µM).

Consider `CO[C@H]1O[C@H]([C@@H]2CO2)[C@@H]2O[C@H]12` [Compound 9, Methyl 2,3:5,6-Dianhydro-β-L-gulofuranoside], for which, in series [1], the LD50 stood at 0.00003 μg/insect and the “activity” value is “extremely active; also recorded: high toxicity against adult fruit flies”. This molecule also showed an LC50 in series [2] of 671.50 µg/mL (≈ 4250 µM). Besides, the “% Control of White Fly” value in series [3] (concentration 2.5 μg/mL) amounted to 85%. Besides, in series [3], the “insecticidal efficacy against adult white fly (in words)” value was “show efficacy as insecticides; also recorded: promising for activity against the white fly”.

Molecule `O=[N+]([O-])NC1=NCCN1Cc1ccc(Cl)nc1` [Imidacloprid, imidacloprid, reference compound] registered an LD50 in series [1] of 0.01253 μg/insect. In series [5], this molecule had an LC50 at 24 h of 0.0312 µg/mL (≈ 0.122 µM).

For the molecule “(7R)-/(7S)-3,6,7-Trideoxy-1,2-O-isopropylidene-7-methyl-7-phenylselenyl-α-D-ribo-octofuranurono-8,5-lactone [Compound 7]”, the figures for the LD50 (in series [1]; in the series with fruit fly larvae) were 0.0002 μg/insect and 0.968 μg/insect, respectively. In addition, the LC50 in series [2] was 261.04 µg/mL. The “% Control of White Fly” value in series [3] (concentration 4.8 μg/mL) amounted to 0%.

For “methyl (7R)-/(7S)-2,3-anhydro-6,7-dideoxy-7-methyl-7-phenylselenyl-α-gulo-octofuranurono-8,5-lactone [Compound 6]”, the LD50 in series [1] is reported as 0.00015 μg/insect. Further, the LC50 in series [2] came to 125.48 µg/mL. Also, in series [3] (concentration 1.3 μg/mL), the “% Control of White Fly” value is 0%.

These data come from patent publication US7622498B2, “Sugar derivatives comprising oxiranes or α, β-unsaturated δ-lactones, process for their preparation and their utilisation as pesticides” (Instituto Politecnico de Santarem/Escoal Superior Agraria, priority 2004, dated 2009).
